PubChem BioAssay (NCI)
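In this assay, cells in 96-well plates receive the compound at five concentrations for 48 hours. Endpoints are linearly interpolated between the surrounding concentrations. TGI denotes the concentration required for complete inhibition of growth.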

How the values were obtained:
Assay in all cases: inhibition of tumour cell growth, NCI panel, 48 h
[1] = tested on: OVCAR-4 ovarian
[2] = tested on: MDA-MB-435
[3] = tested on: HCT-15 colon
[4] = tested on: NCI-H226 lung
[5] = tested on: HT29 colon
[6] = tested on: HS 578T breast
[7] = tested on: HCC-2998 colon
[8] = tested on: K-562 leukemia
[9] = tested on: SR leukemia
[10] = tested on: SK-MEL-5 melanoma
[11] = tested on: OVCAR-3 ovarian
[12] = tested on: HOP-92 NSCLC
[13] = tested on: UACC-257 melanoma
[14] = tested on: 786-0 renal
[15] = tested on: MCF7 breast
[16] = tested on: OVCAR-5 ovarian
[17] = tested on: A549 NSCLC
[18] = tested on: NCI-H23 lung
[19] = tested on: RPMI-8226 leukemia
[20] = tested on: MOLT-4 leukemia
[21] = tested on: EKVX NSCLC
[22] = tested on: RXF 393 renal
[23] = tested on: SF-539 CNS
[24] = tested on: TK-10 renal
[25] = tested on: SW-620 colon
[26] = tested on: HOP-62 NSCLC
[27] = tested on: LOX IMVI melanoma
[28] = tested on: CCRF-CEM leukemia
[29] = tested on: UACC-62 melanoma
[30] = tested on: SNB-75 CNS
[31] = tested on: MDA-MB-231 breast
[32] = tested on: BT-549 breast
[33] = tested on: OVCAR-8 ovarian
[34] = tested on: SK-MEL-2 melanoma
[35] = tested on: SF-295 CNS
[36] = tested on: SK-MEL-28 melanoma
[37] = tested on: KM12 colon
[38] = tested on: UO-31 renal
[39] = tested on: ACHN renal
[40] = tested on: COLO 205 colon
[41] = tested on: HL-60(TB) leukemia
[42] = tested on: HCT-116 colon
[43] = tested on: CAKI-1 renal
[44] = tested on: NCI-H522 lung
[45] = tested on: A498 renal
[46] = tested on: T-47D breast
[47] = tested on: MALME-3M melanoma
[48] = tested on: U251 CNS
[49] = tested on: SF-268 CNS
[50] = tested on: DU-145 prostate
[51] = tested on: IGROV1 ovarian
[52] = tested on: NCI/ADR-RES ovarian
[53] = tested on: NCI-H460 lung
[54] = tested on: SK-OV-3 ovarian

CN(/N=C\c1ccc2ccccc2c1)C1=NCCN1
TGI [1]: 73 µM | TGI [2]: 30.1 µM | TGI [3]: > 100 µM | TGI [4]: 37.8 µM | TGI [5]: 31.3 µM | TGI [6]: 47.5 µM | TGI [7]: 29.7 µM | TGI [8]: 45.2 µM | TGI [9]: 56.6 µM | TGI [10]: 28.6 µM | TGI [11]: 99.6 µM | TGI [12]: 9.02 µM | TGI [13]: 29.5 µM | TGI [14]: 47.4 µM | TGI [15]: 38.7 µM | TGI [16]: > 100 µM | TGI [17]: 36.3 µM | TGI [18]: > 100 µM | TGI [19]: 48 µM | TGI [20]: 40.9 µM | TGI [21]: 63.3 µM | TGI [22]: 23.9 µM | TGI [23]: 32.8 µM | TGI [24]: 28.5 µM | TGI [25]: 41.7 µM | TGI [26]: 40.7 µM | TGI [27]: 25.4 µM | TGI [28]: 65 µM | TGI [29]: 38.8 µM | TGI [30]: 41.5 µM | TGI [31]: 36.1 µM | TGI [32]: 29.9 µM | TGI [33]: > 100 µM | TGI [34]: 30.9 µM | TGI [35]: 30.4 µM | TGI [36]: 28.4 µM | TGI [37]: 32.8 µM | TGI [38]: 31.7 µM | TGI [39]: 60 µM | TGI [40]: 31.9 µM | TGI [41]: 33 µM | TGI [42]: 31.8 µM | TGI [43]: 27.4 µM | TGI [44]: 32 µM | TGI [45]: 28.6 µM | TGI [46]: 75.9 µM | TGI [47]: 29.7 µM | TGI [48]: 56.5 µM | TGI [49]: 84.1 µM | TGI [50]: > 100 µM | TGI [51]: 41.6 µM | TGI [52]: 82.1 µM | TGI [53]: 30.6 µM | TGI [54]: > 100 µM
